Here are results for one compound from patent US10577322B2, “5-methoxytryptophan and its derivatives and uses thereof” (National Health Research Institutes, priority 2015, dated 2020).

For test [1], the system named is NF-κB p65. Briefly: Phospho-p65 level in lung tissues (ELISA kit). The class given is in vivo, mice. Particulars: 4 and 8 h after LPS, 5-MTP 23.4 mg/kg. The protocol: Since NF-κB activation plays a critical role in the initiation and progression of systemic inflammation and septic pathology, the effect of 5-MTP on NF-κB activation in lung tissue was evaluated. Phospho-p65 level in lung tissues was determined by an ELISA kit at 4 and 8 h after LPS infusion with or without 5-MTP (23.4 mg/kg) (n=6 mice/group).
For orientation: In an ELISA, binding on a coated surface is turned into a signal by an enzyme label.

The next test concerns ERK½. Briefly: LPS-induced ERK½ phosphorylation in RAW264.7 cells (immunoblot). The class given is cell-based, mouse. Particulars: LPS 4 h. How it is done:
Cellular protein were resolved by 5% to 20% SDS-PAGE and transferred to nitrocellulose membranes and blotted with specific antibodies as previously described (Lee, G. L., et al.).
After pretreating RAW264.7 cells with different concentrations of 5-MTP for 30 min, cells were stimulated with LPS for 4 h. Cell lysates were immunoblotted with antibodies for p38, phospho-p38 (p-p38), ERK½, phospho-ERK½ (p-ERK½) or β-actin. […] Activation of p38 MAPK in macrophages is required for TLR-induced NF-κB activation, which is one of the key factors affecting TLR-induced cytokine production. Thus, we evaluated the effect of 5-MTP on LPS-induced. NF-κB activation.
In general terms: A western blot detects proteins with antibodies after separation by electrophoresis.

Another test relates to peritoneal macrophages. As to the kind of experiment: Ex vivo cytokine production of peritoneal macrophages from endotoxemic mice. The class given is in vivo. Particulars: macrophages isolated 8 h after LPS, 5-MTP 23.4 mg/kg, cultured 24 h. The protocol:
To further confirm that 5-MTP deactivates peritoneal macrophages during endotoxemia, we evaluated the effect of 5-MTP on IL-1β and IL-6 production ex vivo in peritoneal macrophages isolated from untreated or 5-MTP-treated endotoxemic mice. Peritoneal macrophages were isolated 8 h after LPS injection with saline or 5-MTP (23.4 mg/kg) and cultured with medium alone. After 24 h, proinflammatory cytokines were measured by ELISA (n=3).

In a further test the test system is COX-2. Briefly: LPS-induced COX-2 expression in peritoneal macrophages (western blot). Particulars: primary mouse peritoneal macrophages, LPS 8 h. The class given is cell-based. How it is done: (§1) For peritoneal macrophage isolation, C57BL/6J mice were injected intraperitoneally with 2 ml of 4% thioglycollate. Four days after injection, the peritoneal cavity was washed with 5 ml of ice-cold RPMI1640 medium, and cells from the peritoneal exudates were collected by centrifugation, and suspended in RPMI1640 medium, then seeded on 15-cm dishes and allowed to adhere for 4 h. Floating cells were washed out, and adherent cells were used as peritoneal macrophages in the experiments. The cells were incubated with or without LPS (100 ng/ml) for the indicated time before each experiment, as in the protocol for the RAW264.7 cells.
Furthermore, peritoneal macrophages were stimulated with LPS with or without 5-MTP. After 8 h, COX-2 protein expression was determined by western blot. The experiments were repeated 3 times with similar results.

In test [2] the test system is NF-κB p65. As to the kind of experiment: Phospho-p65 in peritoneal macrophage lysates (ELISA kit). The class given is cell-based, mouse. Particulars: peritoneal macrophages, 5-MTP 50 μM. The protocol:
Furthermore, after pretreating RAW264.7 cells with different concentrations of 5-MTP for 30 min, cells were stimulated with. LPS for 4 h. NF-κB p65, phospho-NF-κB p65 (p-p65) (Ser536) or β-actin was determined by immunoblotting with specific antibodies. Also, peritoneal macrophages were treated with LPS with or without 5-MTP (50 μM) for the indicated time. Phospho-p65 in the lysates was analyzed by an ELISA kit. The results are shown in FIG. 10D, in which the error bars denote mean ±SD (n=3). According to FIGS. 10C-10D, 5-MTP decreased LPS-induced phosphorylation of NF-κB p65 not only in RAW264.7 cells (FIG. 10C) but also in peritoneal macrophages (FIG. 10D).

For test [3], the system named is proinflammatory cytokines. As to the kind of experiment: LPS-induced proinflammatory cytokines in peritoneal macrophages (ELISA). The class given is cell-based, mouse. Particulars: LPS 24 h. The protocol: as §1
Cytokine levels in the culture supernatants and serum were determined in microtiter plates (96-well) by a specific sandwich ELISA (Biosource) as previously described (Wu, J. Y. & Kuo, C. C. Pivotal role of ADP-ribosylation factor 6 in Toll-like receptor 9-mediated immune signaling. J Biol Chem 287, 4323-4334 (2012)) (Lee, G. L., et al. TLR 2 induces vascular smooth muscle cell migration through cAMP response element-binding protein-mediated interleukin-6 production. Arterioscler Thromb Vasc Biol 32, 2751-2760 (2012); hereinafter, Lee, G. L., et al.).
Furthermore, peritoneal macrophages were stimulated with LPS with or without 5-MTP. After 24 h, proinflammatory cytokines were measured by ELISA.

The subject of the next test is caspase-3. Briefly: Cleaved caspase-3 immunohistochemistry in lung tissues. The class given is in vivo, mice. Particulars: LPS 60 mg/kg, 12 and 16 h. How it is done: Prior to immunohistochemical detection of COX-2, iNOS, Ly6g, or cleaved caspase-3 in lung sections, sections were deparaffinized with xylene, progressively rehydrated through graded alcohols. Antigen sites were retrieved by heating the sections on slides in pH 8 EDTA antigen. retrieval (Trilogy; Cell Marque Corporation) in electric pressure cooker for 15 min. […] All antibodies described hereafter were diluted in blocking buffer. Sections were incubated at room temperature for 2 h with primary antibody and then washed in PBST. The sections were incubated with primary antibody amplifier quanta (Thermo) for 10 minutes. After rinsing with PBST, the sections were incubated with HRP Polymer Quanto (Thermo) for 10 minutes and washed three times with PBST. COX-2, iNOS, Ly6g and cleaved caspase-3 were visualized by the addition of DAB Quanto Chromogen: Substrate for 3 minutes. Tissues were also counterstained with hematoxylin.
Paraffin-embedded sections were prepared from lung tissues of mice treated with saline or LPS (60 mg/kg) with or without various concentrations of 5-MTP for 12 or 16 h. Activated caspase-3 level in lung tissues was determined by immunohistochemical staining of cleaved caspase-3. The results are shown in FIG. 9A, in which scale bars represent 200 μm.

For another test, the system named is chemokines. Briefly: Serum chemokine level in LPS-injected mice (ELISA). The class given is in vivo. Particulars: 5-MTP 23.4 mg/kg, 24 h. The protocol:
Furthermore, chemokine level was measured by ELISA in the serum of saline or LPS-injected mice with or without saline or 5-MTP (23.4 mg/kg) after 24 h (n=10). The results shown in FIG. 8C indicate that LPS-induced elevation of chemokines, CXCL1, MCP-1, RANTES and eotaxin in the serum was blunted by 5-MTP treatment at 24 h.

Take `COc1ccc2[nH]cc(C[C@H](N)C(=O)O)c2c1` [5-MTP, 5-methoxytryptophan]: the “phosphorylation level of NF-κB p65 in lung tissues” value with NF-κB p65 [1] was “reduced by 5-MTP”. Further, in the test with ERK½, the “phosphorylation of ERK½” value is listed as “but not that of ERK½”. In the test with peritoneal macrophages, the “ex vivo IL-1β production” value is “significantly suppressed” and the “ex vivo IL-6 production” value is on record as “significantly suppressed”. Moreover, the “LPS-induced COX-2 expression” value with COX-2 was “inhibited”. Further, the “LPS-induced phosphorylation of NF-κB p65” value in the test on NF-κB p65 [2] was “decreased”. Moreover, in test [3], the IL-1β production result was “inhibited”, the IL-6 production result was “inhibited” and the TNF-α production result is reported as “inhibited”. In addition, the “cleaved caspase-3 in lung tissues” value in the test on caspase-3 is given as “reduced by 5-MTP”. Moreover, in the test on chemokines, the “LPS-induced elevation of CXCL1 in serum” value is given as “blunted”, the “LPS-induced elevation of MCP-1 in serum” value was “blunted”, the “LPS-induced elevation of RANTES in serum” value is given as “blunted” and the “LPS-induced elevation of eotaxin in serum” value is on record as “blunted”.
